Read-outs that look alike come from different tables or passages of the source.
Tested on: human hepatoma Huh-7 cell line harboring a HCV replicon
Assay: HCV replicon assay (inhibition of viral replication, luciferase)
Assay type: cell-based
Conditions: Hepatitis C virus, read-out: % inhibition at 2 μM
Summary of the method: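 Huh-7 replicon cells (1600/well) exposed 3 days at 37 °C to 10-point 3-fold dilutions, 0.44% DMSO. Replication measured by Dual-Glo luciferase, background from ITMN-191 wells; cytotoxicity by calcein AM. EC50/CC50 from Hill fit; % inhibition at fixed concentration derivable from fit.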

[1] = 72 h, 2 μM, Huh-7 HCV replicon cells, 3 days incubation, inhibition of viral replication

Compound	inhibition at 2 µM [1] [%]	inhibition at 2 µM (Huh-7, 72 h) [%]
CC(C)(C)C#Cc1cc(N(C(=O)[C@H]2CC[C@H](C)CC2)C2CCC(=NOc3ccccc3)CC2)c(C(=O)O)s1 (stereo partly drawn) [Compound 119, 5-(3,3-Dimethylbut-1-ynyl)-3-(4-methyl-N-(4-(phenoxyimino)cyclohexyl)cyclohexanecarboxamido)thiophene-2-carboxylic acid]	97.1	–
CON=C1CCC(N(C(=O)C2CCC(C)CC2)c2cc(C#CC(C)(C)C)sc2C(=O)O)CC1 (stereo not drawn) [Compound 120, 5-(3,3-Dimethylbut-1-ynyl)-3-(N-(4-(methoxyimino)cyclohexyl)-4-methylcyclohexanecarboxamido)thiophene-2-carboxylic acid]	99.9	–
CC1CCC(C(=O)N(c2cc(C#CC(C)(C)C)sc2C(=O)O)C2CCC(=NOCc3ccc(S(C)(=O)=O)cc3)CC2)CC1 (stereo not drawn) [Compound 121, 3-(N-(4-(4-(Methylsulfonyl)benzyloxyimino)cyclohexyl)-4-methylcyclohexanecarboxamido)-5-(3,3-dimethylbut-1-ynyl)thiophene-2-carboxylic acid]	99.9	–
CC1CCC(C(=O)N(c2cc(C#CC(C)(C)C)sc2C(=O)O)N(C)C2CCC3(CC2)OCCO3)CC1 (stereo not drawn) [Compound 122]	99.7	–
CC1CCC(C(=O)N(c2cc(C#CC(C)(C)C)sc2C(=O)O)N(C)[C@H]2CC[C@@H](O)CC2)CC1 (stereo partly drawn) [Compound 123, 3-(2-(4-hydroxycyclohexyl)-2-methyl-1-(4-methylcyclohexanecarbonyl)hydrazinyl)-5-(3,3-dimethylbut-1-ynyl)thiophene-2-carboxylic acid]	99.9	–
CC1CCC(C(=O)N(c2cc(C#CC(C)(C)C)sc2C(=O)O)N(C)C2CCN(C(=O)OC(C)(C)C)CC2)CC1 (stereo not drawn) [Compound 127, 4-[N′-[2-carboxy-5-(3,3-dimethyl-but-1-ynyl)-thiophen-3-yl]-N-methyl-N′-(4-methyl-cyclohexanecarbonyl)-hydrazino]-piperidine-1-carboxylic acid tert-butyl ester]	98.3	–
CC1CCC(C(=O)N(c2cc(C#CC(C)(C)C)sc2C(=O)O)N(C)C2CCNCC2)CC1 (stereo not drawn) [Compound 128, 5-(3,3-dimethyl-but-1-ynyl)-3-[N′-methyl-N-(4-methyl-cyclohexanecarbonyl)-N′-piperidin-4-yl-hydrazino]-thiophene-2-carboxylic acid]	99.8	–
CC1CCC(C(=O)N(c2cc(C#CC(C)(C)C)sc2C(=O)O)N(C)C2CCN(C)CC2)CC1 (stereo not drawn) [Compound 129, 5-(3,3-dimethyl-but-1-ynyl)-3-[N′-methyl-N-(4-methyl-cyclohexanecarbonyl)-N′-(1-methyl-piperidin-4-yl)-hydrazino]-thiophene-2-carboxylic acid]	100	–
CC1CCC(C(=O)N(c2cc(C#CC(C)(C)C)sc2C(=O)O)N(C)CCOc2cccnc2)CC1 (stereo not drawn) [Compound 130, 5-(3,3-dimethyl-but-1-ynyl)-3-{N′-methyl-N-(4-methyl-cyclohexanecarbonyl)-N′-[2-(pyridin-3-yloxy)-ethyl]-hydrazino}-thiophene-2-carboxylic acid]	98.7	–
CC1CCC(C(=O)N(c2cc(C#CC(C)(C)C)sc2C(=O)O)N(C)CC2CCOCC2)CC1 (stereo not drawn) [Compound 131, 5-(3,3-dimethyl-but-1-ynyl)-3-[N′-methyl-N-(4-methyl-cyclohexanecarbonyl)-N′-(tetrahydro-pyran-4-ylmethyl)-hydrazino]-thiophene-2-carboxylic acid]	99.9	–
CC1CCC(C(=O)N(c2cc(C#CC(C)(C)C)sc2C(=O)O)N(C)CCOc2ccccn2)CC1 (stereo not drawn) [Compound 132, 5-(3,3-dimethyl-but-1-ynyl)-3-{N′-methyl-N-(4-methyl-cyclohexanecarbonyl)-N′-[2-(pyridin-2-yloxy)-ethyl]-hydrazino}-thiophene-2-carboxylic acid]	77.4	–
CC1CCC(C(=O)N(NCCOc2cccnc2)c2cc(C#CC(C)(C)C)sc2C(=O)O)CC1 (stereo not drawn) [Compound 133, 5-(3,3-dimethyl-but-1-ynyl)-3-{N-(4-methyl-cyclohexanecarbonyl)-N′-[2-(pyridin-3-yloxy)-ethyl]-hydrazino}-thiophene-2-carboxylic acid]	96.7	–
CC1CCC(C(=O)N(c2cc(C#CC(C)(C)C)sc2C(=O)O)N(CCO)C2COC2)CC1 (stereo not drawn) [Compound 134, 5-(3,3-dimethyl-but-1-ynyl)-3-[N′-(2-hydroxy-ethyl)-N-(4-methyl-cyclohexanecarbonyl)-N′-oxetan-3-yl-hydrazino]-thiophene-2-carboxylic acid]	99	–
CC1CCC(C(=O)N(c2cc(C#CC(C)(C)C)sc2C(=O)O)N(C)CCO)CC1 (stereo not drawn) [Compound 135, 5-(3,3-dimethyl-but-1-ynyl)-3-[N′-(2-hydroxy-ethyl)-N′-methyl-N-(4-methyl-cyclohexanecarbonyl)-hydrazino]-thiophene-2-carboxylic acid]	99.8	–
CC1CCC(C(=O)N(c2cc(C#CC(C)(C)C)sc2C(=O)O)N(C)C)CC1 (stereo not drawn) [Compound 136, 5-(3,3-dimethyl-but-1-ynyl)-3-[N′-dimethyl-N-(4-methyl-cyclohexanecarbonyl)-hydrazino]-thiophene-2-carboxylic acid]	98.9	–
CC1CCC(C(=O)N(c2cc(C#CC(C)(C)C)sc2C(=O)O)N(C)c2ccccn2)CC1 (stereo not drawn) [Compound 137, 5-(3,3-dimethyl-but-1-ynyl)-3-[N′-methyl-N-(4-methyl-cyclohexanecarbonyl)-N′-pyridin-2-yl-hydrazino]-thiophene-2-carboxylic acid]	100	–
CC1CCC(C(=O)N(c2cc(C#CC(C)(C)C)sc2C(=O)O)C2CCN(C(=O)c3cccnc3)CC2)CC1 (stereo not drawn) [Compound 140, 5-(3,3-dimethyl-but-1-ynyl)-3-{(4-methyl-cyclohexanecarbonyl)-[1-(pyridine-3-carbonyl)-piperidin-4-yl]-amino}-thiophene-2-carboxylic acid]	99.9	–
CC1CCC(C(=O)N(c2cc(C#CC(C)(C)C)sc2C(=O)O)C2CCN(C(=O)c3cnccn3)CC2)CC1 (stereo not drawn) [Compound 141, 5-(3,3-dimethyl-but-1-ynyl)-3-{(4-methyl-cyclohexanecarbonyl)-[1′-(pyrazine-2-carbonyl)-piperidin-4-yl]-amino}-thiophene-2-carboxylic acid]	99.9	–
CC1CCC(C(=O)N(c2cc(C#CC(C)(C)C)sc2C(=O)O)C2CCN(C(=O)c3cccnc3)C2)CC1 (stereo not drawn) [Compound 142, 5-(3,3-Dimethyl-but-1-ynyl)-3-{(4-methyl-cyclohexanecarbonyl)-[1-(pyridine-3-carbonyl)-pyrrolidin-3-yl]-amino}-thiophene-2-carboxylic acid]	99.6	–
CN([C@H]1CC[C@H](N(c2cc(C#CC(C)(C)C)sc2C(=O)O)C(=O)[C@H]2CC[C@H](C)CC2)CC1)S(=O)(=O)c1cccnc1 [Compound 164, 5-(3,3-dimethyl-but-1-ynyl)-3-((4-trans-methyl-cyclohexanecarbonyl)-{4-trans-[methyl-(pyridine-3-sulfonyl)-amino]-cyclohexyl}-amino)-thiophene-2-carboxylic acid]	98.9	–
CC(C)(C)C#Cc1cc(N(C(=O)[C@H]2CC[C@H](C)CC2)C2CCC(NS(=O)(=O)c3cccnc3)CC2)c(C(=O)O)s1 (stereo partly drawn) [Compound 165, 5-(3,3-dimethyl-but-1-ynyl)-3-{(4-trans-methyl-cyclohexanecarbonyl)-[4-(pyridine-3-sulfonylamino)-cyclohexyl]-amino}-thiophene-2-carboxylic acid]	95.7	–
CC1CCC(C(=O)N(c2cc(C#CC(C)(C)C)sc2C(=O)O)C2CCC(NC(=O)OC3CN(C(=O)OC(C)(C)C)C3)CC2)CC1 (stereo not drawn) [Compound 186, 3-{4-[[2-carboxy-5-(3,3-dimethyl-but-1-ynyl)-thiophen-3-yl]-(4-methyl-cyclohexanecarbonyl)-amino]-cyclohexylcarbamoyloxy}-azetidine-1-carboxylic acid tert-butyl ester]	98.9	–
CC1CCC(C(=O)N(c2cc(C#CC(C)(C)C)sc2C(=O)O)C2CCC(NN(C)C(=O)OC3CCOCC3)CC2)CC1 (stereo not drawn) [Compound 217, 5-(3,3-dimethyl-but-1-ynyl)-3-((4-methyl-cyclohexanecarbonyl)-{4-[N′-methyl-N′-(tetrahydro-pyran-4-yloxycarbonyl)-hydrazino]-cyclohexyl}-amino)-thiophene-2-carboxylic acid]	100	–
CC1CCC(C(=O)N(c2cc(C#CC(C)(C)C)sc2C(=O)O)C2CCC(NN(C)C(=O)Oc3ccccn3)CC2)CC1 (stereo not drawn) [Compound 218, 5-(3,3-dimethyl-but-1-ynyl)-3-((4-methyl-cyclohexanecarbonyl)-{4-[N′-methyl-N′-(pyridin-2-yloxycarbonyl)-hydrazino]-cyclohexyl}-amino)-thiophene-2-carboxylic acid]	–	100
